# From patent publication US20050123936A1, “Method, composition, and kit to design, evaluate, and/or test compounds that modulate regulatory factor binding to nucleic acids” (priority 2003, published 2005)
# Ends that are not written are not given here. Hoechst 33258 analog = not defined here
# B1: Composite Ubx-Exd EMSA duplex (FIG. 2d) (dsDNA)
# DNA 1: GATCTCCCGGCGAATGATTTATGGTATCGGCGCCACTGTCACCCGGA
# DNA 2: TCCGGGTGACAGTGGCGCCGATACCATAAATCATTCGCCGGGAGATC
# B2: Ubx: Drosophila ultrabithorax (Ubx) protein homeodomain (residues 233-313 of the Ubx isoform IVa) (protein, UniProt P83949 233-313, looked up, fragment)
# chain: QASNHTFYPWMAIAGECPEDPTKSKIRSDLTQYGGISTDMGKRYSESLAGSLLPDWLGTNGLRRRGRQTYTRYQTLELEKE
# modifications: isoform IVa
# Columns and labels:
# [1] = target: TGGTCA matched site on 250-bp EcoRI/PvuII restriction fragment from plasmid pDEH9; experiment: Quantitative DNase I footprint titration, matched site; format: binding; settings: 12 h at 22° C., TKMC buffer pH 7.0, read-out: Equilibrium Dissociation Constants Kd, TGGTCA
# Description: (§1) Quantitative DNaseI footprinting can be used to determine the equilibrium association constants for binding to match and mismatch sites. Footprinting experiments are generally performed on 3′- and/or 5′-^32P end restriction fragments derived from plasmids. 3′-shifted cleavage patterns are consistent with location of the polyamide in the minor groove. Typical reaction conditions are: 10 mM Tris-HCl, 10 mM KCl, 10 mM MgCl2, 5 mM CaCl2, pH 7.0, and 22° C. See Brenowitz et al. (1986). Methods Enzymol. 130:132-181; Fox & Waring (1984) Nucleic Acids Res. 12:9271-9285; and Brenowitz et al. (1986) Proc. Natl. Acad. Sci. U.S.A. 83: 8462-8466.
# DNase I Footprinting: Dissociation constants for the DNA binding of compounds 1, 2 and 3 were obtained following published protocols. All reactions were carried out in 400 μL total volume employing 20 kcpm of a 3′-radiolabelled 250-bp restriction fragment from the plasmid pDEH9 (FIG. 1a) (SEQ. ID. NO: 4). […]
# FIGS. 1b, 1c, and 1d are quantitative DNAse I footprint titration experiments for compounds 1, 2 and 3 on the 3′^−32 P-labeled 250-bp EcoRI/PvuII restriction fragment from the plasmid pDEH9. […]
# The DNA-binding properties of the compounds 1-3 were investigated by quantitative DNase 1 footprinting assays. […]
# [2] = test system: TGGCCA mismatch site on 250-bp EcoRI/PvuII restriction fragment from plasmid pDEH9; experiment: Quantitative DNase I footprint titration, mismatch site TGGCCA; format: binding
# Description: as §1
# (§2) DNase I Footprinting: Dissociation constants for the DNA binding of compounds 1, 2 and 3 were obtained following published protocols. All reactions were carried out in 400 μL total volume employing 20 kcpm of a 3′-radiolabelled 250-bp restriction fragment from the plasmid pDEH9 (FIG. 1a) (SEQ. ID. NO: 4). No carrier DNA was used in the equilibration, and the solutions were allowed to equilibrate for 12 h at 22° C. in TKMC buffer (10 mM TRIS, 10 mM KCl, […], 5 mM CaCl2 pH 7.0) prior to the DNase I digestion. Reaction products (8 kcpm) were resolved on denaturing 8% polyacrylamide sequencing gels run at 55 W.
# (§3) FIGS. 1b, 1c, and 1d are quantitative DNAse I footprint titration experiments for compounds 1, 2 and 3 on the 3′^−32 P-labeled 250-bp EcoRI/PvuII restriction fragment from the plasmid pDEH9. Lane 1: Intact DNA. Lane 2: A-reaction. Lane 3: G-reaction. Lane 4: DNAse 1 standard.
# (§4) The DNA-binding properties of the compounds 1-3 were investigated by quantitative DNase 1 footprinting assays. The equilibrium binding constants of each of the compounds for a matched versus three single base pair mismatch sites is compiled in Table 1. The lower strand sequence is shown in the header. Mismatched base pairs are underlined. The residue under the YPWM peptide is in bold. Relative specificities are given in square brackets.
# [3] = test system: TGGGCA mismatch site on 250-bp EcoRI/PvuII restriction fragment from plasmid pDEH9; experiment: Quantitative DNase I footprint titration, mismatch site TGGGCA; format: binding
# Description: as §1, §2, §3, §4
# [4] = test system: AGCTCA mismatch site on 250-bp EcoRI/PvuII restriction fragment from plasmid pDEH9; experiment: Quantitative DNase I footprint titration, mismatch site AGCTCA; format: binding
# Description: as §1, §2, §3, §4
# [5] = target: T1, extradenticle (Exd) protein (residues 238-324) (Drosophila melanogaster, UniProt P40427); experiment: EMSA: recruitment of Exd to its cognate DNA site by polyamides 1-3; format: binding; settings: saturating 50 nM compound, Exd 0-100 nM
# T1 construct: comprising the homeodomain and the extended fourth helix (residues 238-324); made in house
# T1 sequence (P40427 238-324): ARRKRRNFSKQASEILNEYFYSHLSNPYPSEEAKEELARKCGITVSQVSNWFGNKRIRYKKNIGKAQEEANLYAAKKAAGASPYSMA
# From the text: (§5) Protein expression: Drosophila extradenticle (Exd) protein comprising the homeodomain and the extended fourth helix (residues 238-324), as well as ultrabithorax (Ubx) protein homeodomain (residues 233-313 of the Ubx isoform IVa) were expressed and purified after Passner & Aggarwal. The purified proteins Exd and Ubx were used for EMSA studies as described below.
# (§6) For the templates, the DNA oligonucleotides depicted in FIGS. 2a, 2b, 2c, and 2d were used, SEQ. ID NOS: 5, 6, 7, and 8, respectively. The DNA upper strand was annealed with the respective matching lower strand and both strands were 5′-labeled with γ-^32P-ATP and polynucleotide kinase, using standard procedures.
# Gel-shift experiments: The master mix contained 50% BSA/50% glycerol, reaction buffer (150 mM potassium glutamate, 50 mM HEPES pH 7.0, 1 mM DTT, and 5′-end labeled DNA (^32P) The final concentrations in the samples were 100 ng/μL BSA and 10% glycerol. Polyamides were kept in subdued lighting whenever possible. Upon addition of the polyamide to 1 pM DNA, the samples were incubated at 25 °C. for 30 minutes in a 20 μL reaction. Next, Exd was added to the samples and incubated for 1 hour at 4° C. A 9% acrylamide/3% glycerol gel was pre-run for 15 min prior to loading. In each lane 15 μL of a 20 μL reaction were loaded while the gel was running to prevent the samples from being diluted. The gels were run at 4° C./185 V. Gels were dried, exposed to a phosphorimager screen, and visualized using a Molecular Dynamics phosphorimager.
# FIGS. 3a and 3b: EMSA studies with polyamides 1-3, Exd and Ubx. In FIG. 3a, each polyamide binds and decreases the mobility of free DNA (lanes 2-18). […] In lanes 2-6,8-12, 14-18, Exd was added in following concentrations: 0, 3, 10, 30, 100 nM. Lanes 19 and 20 contained DNA bearing the Exd-Ubx binding site that was used in X-ray crystal structure determination (see methods above for sequence). In the reaction shown in lane 20, 275 nM Ubx and 30 nM Exd were incubated with DNA. […]
# [6] = test system: DNA duplex templates (FIG. 2a optimal; FIG. 2c mismatch in PA binding site); experiment: EMSA: binding of polyamides to the DNA duplex templates; settings: even at 100 nM concentrations
# From the text: as §6
# FIGS. 2a, 2b, 2c and 2d show depict the DNA duplexes used for the EMSA studies. The binding site for the Exd protein is marked by a box, the polyamide or Hox protein binding site is shown in boldface, FIG. 2a depicts the optimal template. FIG. 2b depicts a 2-bp mismatch in the Exd site. FIG. 2c depicts a 2-hp mismatch in the PA binding site. FIG. 2d depicts a composite Ubx-Exd binding site (see Passner et al. (1999) Nature, 397:714-719). […]
# Exd = target: T2, Exd (Drosophila melanogaster, UniProt P40427); experiment: Example 7 EMSA: recruitment of Exd by linker compounds; format: binding
# T2 construct: comprising the homeodomain and the extended fourth helix (residues 238-324); made in house
# T2 sequence (P40427 238-324): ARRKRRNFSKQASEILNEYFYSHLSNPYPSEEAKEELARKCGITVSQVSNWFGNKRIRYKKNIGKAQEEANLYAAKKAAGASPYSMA
# Description: The assays were performed with 50 nM of the conjugate pre-incubated with target DNA (thus to bind the anchor moiety to the target nucleic acid) followed by the addition and incubation with Exd.
# To determine the effects of longer linker on binding, the ability of compounds using linkers 1, 2 and 4 to recruit Exd at three different temperatures was investigated.
# double-stranded DNA = settings: Behrens et al. (2001); cited from earlier work
# [7] = target: Ultrabithorax (Ubx) homeodomain, isoform IVa (Drosophila, UniProt P83949-5 P83949-5:233-313); experiment: EMSA; Ubx alone; 150 mM K glutamate, 50 mM HEPES pH 7.0, 4 C; settings: label: 5'-32P both strands
# Description: Gel-shift studies with the Ubx protein were performed under identical buffer conditions using the duplex oligonucleotide listed in FIG. 2d. Ubx was added to the reaction mixture containing ³²P-endlabeled duplex DNA and incubated at 4° C. for 30 min. […] The complexes were resolved under similar gel conditions as those described for DNA-polyamide-Exd complexes above.
# [8] = test system: duplex DNA with composite Ubx-Exd binding site (FIG. 2d); experiment: EMSA: Ubx binding to its cognate DNA
# Description: (§7) Gel-shift studies with the Ubx protein were performed under identical buffer conditions using the duplex oligonucleotide listed in FIG. 2d. Ubx was added to the reaction mixture containing ^32P-endlabeled duplex DNA and incubated at 4° C. for 30 min. Subsequently Exd was added and the reaction was further incubated for 60 min at 4° C. The complexes were resolved under similar gel conditions as those described for DNA-polyamide-Exd complexes above. […] Under saturating concentrations of Ubx (325 nM) the Kd of Exd for the binary [Ubx-DNA] complex was 2-3 fold larger than the affinity of Exd for the polyamide-DNA binary complex.
# [9] = target: T3, extradenticle (Exd) protein (Drosophila melanogaster, UniProt P40427); experiment: EMSA: Exd binding to the binary Ubx-DNA complex; settings: saturating concentrations of Ubx (325 nM)
# T3 construct: comprising the homeodomain and the extended fourth helix (residues 238-324); made in house
# T3 sequence (P40427 238-324): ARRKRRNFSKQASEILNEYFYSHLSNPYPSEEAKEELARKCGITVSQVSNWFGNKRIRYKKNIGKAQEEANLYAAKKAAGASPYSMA
# Description: as §5, §7
# [10] = relative to matched site TGGTCA
# Chain of Ultrabithorax (Ubx) homeodomain, isoform IVa (P83949 other isoform, or with tags, fused parts or gaps): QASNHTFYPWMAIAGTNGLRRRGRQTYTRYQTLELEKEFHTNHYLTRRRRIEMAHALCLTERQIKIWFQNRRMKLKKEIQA
molecule,measurement,setting,value
Cmpd 2 (FYPWMKG),Kd,[1],5.8 ± 0.8 nM
same,"Relative specificity (square brackets), TGGCCA",[2]; [10],1.4
same,Kd,"[2]; single base pair mismatch site, 22° C., TKMC buffer, read-out: Equilibrium Dissociation Constants Kd, TGGCCA",7.9 ± 1.6 nM
same,"Relative specificity (square brackets), TGGGCA",[3]; [10],17
same,Kd,"[3]; single base pair mismatch site, 22° C., TKMC buffer, read-out: Equilibrium Dissociation Constants Kd, TGGGCA",≥ 0.1 nM
same,"Relative specificity (square brackets), AGCTCA",[4]; [10],1.1
same,Kd,"[4]; single base pair mismatch site, 22° C., TKMC buffer, read-out: Equilibrium Dissociation Constants Kd, AGCTCA",6.4 ± 1.1 nM
same,ability to recruit Exd to its cognate DNA site (Exd binding),[5]; listed as Compound 2,capable of recruiting Exd to DNA
same,ability to recruit Exd to its cognate DNA site (Exd binding),[5]; listed as compound 2,binds DNA with very high affinity
same,binding to mutated template (polyamide-binding site eliminated),[6],did not bind
same,ability to recruit Exd,Exd; physiological temperatures (37° C.),fails to do so effectively
same,ability to recruit Exd,Exd; room temperature (23° C.),capable of recruiting Exd
Hoechst 33258 analog-KSPKKAKK polypeptide: Hoechst 33258 analog bonded to the N-terminus of the cationic polypeptide KSPKKAKK (Behrens et al.) ({Hoechst 33258 analog}-KSPKKAKK; reading uncertain),higher affinity for double-stranded DNA than the Hoechst analog itself,double-stranded DNA,approximately 10 fold
B1,Kd,[7],200 nM
B2,affinity of Ubx for its DNA site lower than that of compound 2 for its respective site,[8],≥ 40 fold
same,Kd,[8]; 4° C.,200 ± 25 nM
same,"Kd of Exd for the binary [Ubx-DNA] complex, larger than for the polyamide-DNA binary complex",[9],2-3 fold
